Calls of active or inactive are those of the source.
What was measured:
[1] = target: Fructose-bisphosphate aldolase (Mycobacterium tuberculosis, UniProt P9WQA3); assay: Fluorescence-based biochemical high throughput dose response assay for inhibitors of the fructose-bisphosphate aldolase (FBA) of M. tuberculosis.; type: functional
[2] = target: T1, Polyadenylate-binding protein 1 (Homo sapiens, UniProt P11940); assay: MLLE domain peptide-binding blockers, IC50 – biochemical, fluorescence polarization, FITC-PAM2 peptide, dose response (AID 602259); type: functional; details: read-out: IC50_Mean
T1 sequence (P11940 whole entry, the tested form may be a part): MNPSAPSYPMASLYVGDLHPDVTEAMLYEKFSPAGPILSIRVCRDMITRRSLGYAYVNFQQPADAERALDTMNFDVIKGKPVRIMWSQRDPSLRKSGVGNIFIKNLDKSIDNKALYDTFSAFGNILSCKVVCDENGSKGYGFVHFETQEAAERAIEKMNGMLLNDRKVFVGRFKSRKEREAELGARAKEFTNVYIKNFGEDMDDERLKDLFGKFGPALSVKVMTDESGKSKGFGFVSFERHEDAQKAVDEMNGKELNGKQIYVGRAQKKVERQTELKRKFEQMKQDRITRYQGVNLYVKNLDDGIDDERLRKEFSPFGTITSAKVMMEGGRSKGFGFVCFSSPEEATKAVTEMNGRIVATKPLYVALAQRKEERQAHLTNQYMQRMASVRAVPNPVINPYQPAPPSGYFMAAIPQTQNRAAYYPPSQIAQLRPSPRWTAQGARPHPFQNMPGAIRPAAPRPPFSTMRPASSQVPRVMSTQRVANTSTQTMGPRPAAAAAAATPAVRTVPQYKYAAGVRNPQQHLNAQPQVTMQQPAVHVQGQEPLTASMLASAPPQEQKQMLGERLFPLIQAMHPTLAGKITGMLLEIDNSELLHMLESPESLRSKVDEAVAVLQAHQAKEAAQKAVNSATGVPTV

[3] = A cytotoxicity screen of small molecule inhibitors of the PhoP region in Salmonella typhi identified in the primary screen. [Related pubchem assays: 1850, 1864, 1985 ]; type: functional
[4] = target: T1, Polyadenylate-binding protein 1; assay: MLLE binding blockers, Cy5 peptide tracer – biochemical, fluorescence polarization, Cy5-PAM2 peptide, secondary, miRNA deadenylation inhibitor project, dose response (AID 602260); type: functional; details: read-out: IC50_Mean
Prothrombin = Prothrombin (Homo sapiens, UniProt P00734); assay: Thrombin 1536 HTS Dose Response Confirmation. [Related pubchem assays: 1046 (Thrombin 1536 HTS; hits were confirmed in this assay)]; type: functional
[5] = viability loss in HEK293T cells – cell-based, cherry-picks, cytotoxicity control for HIV Vif inhibitor project, dose response (AID 652208); type: functional
[6] = inhibitors acting on PAX2 in cells – cell-based, plate reader, dry powder samples, selectivity assay for PAX8 inhibitor project, dose response (AID 743048); type: functional;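 also: HEK293 cells carrying a WT1 promoter luciferase reporter driven by expressed Pax2; potency is for inhibition of Pax2 driven reporter signal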
Paired box protein Pax-8 = Paired box protein Pax-8 (Homo sapiens, UniProt Q06710); assay: PAX8 transcriptional activity inhibition in RMG-I – RMG-I cells, luciferase, cherry-pick, dose response (AID 687027); type: functional, cell-based;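 also: luciferase reporter driven by Pax8 target thyroperoxidase promoter measured by SteadyGlo luminescence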
Chain of Paired box protein Pax-8 (Q06710 whole entry): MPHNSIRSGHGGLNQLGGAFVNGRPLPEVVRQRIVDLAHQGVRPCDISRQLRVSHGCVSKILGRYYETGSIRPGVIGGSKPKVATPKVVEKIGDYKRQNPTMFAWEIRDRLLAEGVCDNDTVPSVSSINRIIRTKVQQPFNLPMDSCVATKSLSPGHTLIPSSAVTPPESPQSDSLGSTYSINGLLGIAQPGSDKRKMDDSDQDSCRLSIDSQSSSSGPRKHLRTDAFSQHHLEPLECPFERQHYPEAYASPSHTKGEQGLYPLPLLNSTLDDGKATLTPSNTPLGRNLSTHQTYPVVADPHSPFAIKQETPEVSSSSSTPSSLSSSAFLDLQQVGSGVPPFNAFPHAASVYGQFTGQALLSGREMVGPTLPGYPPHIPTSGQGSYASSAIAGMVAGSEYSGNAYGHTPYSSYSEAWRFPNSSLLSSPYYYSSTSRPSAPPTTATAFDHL

[7] = COV362 cell viability loss – plate reader, dry powder, SA12, cytotoxicity control for PAX8 inhibitor project, dose response (AID 743144); type: functional, cell-based
[8] = OVCAR-3 cell viability loss – plate reader, dry powder samples, PAX8 inhibitor project, dose response (AID 743044); type: functional, cell-based
[9] = PAX5 cellular inhibition readout – cell-based, plate reader, dry powder samples, selectivity assay for PAX8 inhibitor project, dose response (AID 743047); type: functional;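 also: HEK293 cells carrying a Pax5 driven CD19 promoter luciferase reporter; potency of inhibitors that lower reporter luminescence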
[10] = PAX8-dependent cell viability loss – plate reader, dry powder, dose response (AID 743049); type: functional, cell-based
[11] = COV434 cell viability loss – plate reader, dry powder, SA7, cytotoxicity control for PAX8 inhibitor project, dose response (AID 743145); type: functional, cell-based
[12] = OV-90 cell viability loss – plate reader, dry powder, SA8, PAX8 inhibitor project, dose response (AID 743149); type: functional, cell-based
[13] = IGROV1 cell killing – plate reader, dry powder samples, PAX8 inhibitor project, dose response (AID 743043); type: functional, cell-based; details: IGROV-1
Nonstructural protein 1 = Nonstructural protein 1 (Influenza A virus, UniProt Q194T2); type: functional, Influenza A virus (A/California/07/2009(H1N1))
Chain of Nonstructural protein 1 (Q194T2 whole entry): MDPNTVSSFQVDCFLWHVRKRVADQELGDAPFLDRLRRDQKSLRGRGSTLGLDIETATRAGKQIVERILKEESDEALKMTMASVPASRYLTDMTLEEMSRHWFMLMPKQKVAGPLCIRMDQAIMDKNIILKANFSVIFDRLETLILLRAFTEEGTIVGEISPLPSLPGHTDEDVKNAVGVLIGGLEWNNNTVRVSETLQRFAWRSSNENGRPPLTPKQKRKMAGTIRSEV

Protein S100-A4 = Protein S100-A4 (Homo sapiens, UniProt P26447); assay: human S100A4 peptide interaction inhibition curves – biochemical, fluorescence polarization, cherry-picked hits, dose response (AID 687001); type: functional
Chain of Protein S100-A4 (P26447 whole entry): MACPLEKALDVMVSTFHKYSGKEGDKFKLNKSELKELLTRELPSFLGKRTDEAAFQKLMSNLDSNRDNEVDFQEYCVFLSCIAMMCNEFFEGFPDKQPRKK

[14] = NIH3T3 cell viability loss – ATP luminescence, mouse fibroblasts, counter-screen, dose response (AID 2010); type: functional, cell-based;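 also: cells exposed to compound for about 90 hours before reading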
[15] = reduction of Shn3 3'UTR-driven luciferase in osteoblasts – cell-based, Clone20 osteoblasts, firefly luciferase, cherry-picked, dose response (AID 624132); type: functional;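 also: firefly luciferase luminescence from reporter carrying the Shn3 3'UTR in osteoblasts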
[16] = loss of viability in HepG2 cells – cell-based, CellTiter-Glo, cherry-picked, cytotoxicity control for Shn3 inhibitor project, dose response (AID 624134); type: functional
[17] = non-specific 3'UTR reporter inhibition in Clone20-Shn3RL – cell-based, Renilla luciferase, cherry-picked, counter-screen for Shn3 inhibitor project, dose response (AID 624133); type: functional
INS1 = assay: INS-1E survival protection against cytokine death – cell-based, luminescence, retest, dose response (AID 449756); type: functional; details: Rattus norvegicus;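 also: cell death triggered by IL-1 beta plus TNF-alpha plus IFN-gamma mixture; protective hits raise ATP signal compared with cytokine alone wells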
[18] = Trypanosoma cruzi growth suppression in host cells – NIH3T3 host cells, beta-gal luminescence, confirmation (AID 2044); type: functional, cell-based;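 also: intracellular parasites grown in NIH/3T3 mouse fibroblasts as host cells; luminescent beta-galactosidase reporter signal from transgenic T. cruzi replicating inside host cells; inhibitors lower the luminescence signal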
[19] = target: Long-chain-fatty-acid--AMP ligase FadD28 (Mycobacterium tuberculosis, UniProt P9WQ59); assay: Fluorescence polarization aasay to screen for inhibitors that compete for the binding of FadD28 to a bisubstrate Measured in Biochemical System Using Plate Reader - 2147-01_Inhibitor_Dose_CherryPick_Activity.; type: functional, Mycobacterium tuberculosis H37Rv
Chain of Long-chain-fatty-acid--AMP ligase FadD28 (P9WQ59 whole entry, the tested form may be a part): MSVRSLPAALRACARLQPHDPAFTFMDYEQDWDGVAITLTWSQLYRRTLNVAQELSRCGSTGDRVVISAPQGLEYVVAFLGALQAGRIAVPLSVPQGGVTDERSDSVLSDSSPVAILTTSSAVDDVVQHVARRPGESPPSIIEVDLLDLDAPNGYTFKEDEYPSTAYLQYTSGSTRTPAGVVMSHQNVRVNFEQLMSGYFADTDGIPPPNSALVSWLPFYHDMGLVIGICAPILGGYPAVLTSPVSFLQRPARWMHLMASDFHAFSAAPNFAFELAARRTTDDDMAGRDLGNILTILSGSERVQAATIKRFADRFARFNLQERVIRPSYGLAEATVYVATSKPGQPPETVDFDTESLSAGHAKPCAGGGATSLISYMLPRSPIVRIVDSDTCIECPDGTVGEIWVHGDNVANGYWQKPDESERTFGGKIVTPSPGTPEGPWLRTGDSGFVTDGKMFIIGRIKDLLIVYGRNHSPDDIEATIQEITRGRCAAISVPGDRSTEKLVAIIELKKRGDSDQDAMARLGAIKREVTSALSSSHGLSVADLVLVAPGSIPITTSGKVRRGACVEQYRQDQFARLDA

[20] = target: Disintegrin and metalloproteinase domain-containing protein 17 (Homo sapiens, UniProt P78536); assay: exosite inhibitors of ADAM17, dose response, biochemical (AID 743260)
Chain of Disintegrin and metalloproteinase domain-containing protein 17 (P78536 whole entry, the tested form may be a part): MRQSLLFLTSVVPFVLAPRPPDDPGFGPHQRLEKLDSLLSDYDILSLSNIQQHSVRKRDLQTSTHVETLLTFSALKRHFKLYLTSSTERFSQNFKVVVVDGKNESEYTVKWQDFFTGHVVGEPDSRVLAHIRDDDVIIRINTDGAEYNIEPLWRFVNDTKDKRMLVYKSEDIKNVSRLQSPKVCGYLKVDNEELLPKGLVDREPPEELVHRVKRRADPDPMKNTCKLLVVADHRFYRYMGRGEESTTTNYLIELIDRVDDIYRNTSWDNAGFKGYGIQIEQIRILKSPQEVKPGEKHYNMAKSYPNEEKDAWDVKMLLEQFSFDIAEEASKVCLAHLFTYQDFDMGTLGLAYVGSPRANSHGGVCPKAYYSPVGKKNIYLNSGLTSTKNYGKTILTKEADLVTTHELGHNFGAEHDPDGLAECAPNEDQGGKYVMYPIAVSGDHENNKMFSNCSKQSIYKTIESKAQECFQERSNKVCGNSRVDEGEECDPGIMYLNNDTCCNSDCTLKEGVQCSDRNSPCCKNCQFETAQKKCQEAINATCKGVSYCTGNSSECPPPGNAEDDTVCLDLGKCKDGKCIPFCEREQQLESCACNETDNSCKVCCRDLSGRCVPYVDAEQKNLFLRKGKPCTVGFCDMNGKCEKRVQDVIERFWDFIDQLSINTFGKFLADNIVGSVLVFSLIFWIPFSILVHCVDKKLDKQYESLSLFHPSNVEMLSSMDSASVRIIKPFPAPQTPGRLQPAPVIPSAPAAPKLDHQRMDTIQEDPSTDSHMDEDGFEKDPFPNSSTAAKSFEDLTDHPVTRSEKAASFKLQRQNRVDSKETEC

[21] = inhibition of ADAM10 peptide cleavage – biochemical, FRET peptide substrate, recombinant human ADAM10, selectivity assay for ADAM17 exosite inhibitor project, dose response (AID 743259);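 also: ADAM10 enzyme cleaving a FRET peptide substrate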
HEK293 = assay: viability loss in HEK293T cells – cell-based, ATP luminescence, cherry-pick samples, cytotoxicity control, dose response (AID 687005); type: functional; details: Homo sapiens;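 also: cells exposed to compound for 48 hours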
[22] = HEK293 Cytotoxicity Assay Measured in Cell-Based System Using Plate Reader - 7071-01_Inhibitor_Dose_CherryPick_Activity_Set2.; type: functional
[23] = target: T2, Rac GTPase-activating protein 1 (Homo sapiens, UniProt Q9H0H5); assay: blockers of MgcRacGAP-driven Rac1 GTP hydrolysis – biochemical, ADP Hunter fluorescence, primary and confirmatory, confirmation (AID 624330); type: functional
T2 sequence (Q9H0H5 whole entry): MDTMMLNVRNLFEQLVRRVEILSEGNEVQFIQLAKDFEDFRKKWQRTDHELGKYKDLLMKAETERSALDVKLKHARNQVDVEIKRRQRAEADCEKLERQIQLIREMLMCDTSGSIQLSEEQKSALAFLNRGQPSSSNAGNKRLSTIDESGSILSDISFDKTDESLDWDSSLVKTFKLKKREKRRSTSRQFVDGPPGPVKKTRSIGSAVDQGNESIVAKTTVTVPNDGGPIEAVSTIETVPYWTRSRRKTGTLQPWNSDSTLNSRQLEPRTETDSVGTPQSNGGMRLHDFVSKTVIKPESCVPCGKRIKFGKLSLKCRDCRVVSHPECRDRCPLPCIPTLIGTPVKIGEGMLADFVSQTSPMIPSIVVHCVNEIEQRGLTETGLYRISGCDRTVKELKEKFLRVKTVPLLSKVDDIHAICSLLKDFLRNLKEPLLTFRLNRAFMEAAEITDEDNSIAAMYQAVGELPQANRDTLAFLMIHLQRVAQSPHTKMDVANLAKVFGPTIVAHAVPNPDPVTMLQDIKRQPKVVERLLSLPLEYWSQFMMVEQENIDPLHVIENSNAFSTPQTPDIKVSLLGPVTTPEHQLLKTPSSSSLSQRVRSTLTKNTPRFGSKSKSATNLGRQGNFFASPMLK

[24] = NIH-3T3 fibroblast cytotoxicity, dose response, cytotoxicity control, cell-based, fluorescence, Alamar Blue, secondary assay (AID 2327); type: functional;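 also: NIH-3T3 mouse fibroblasts cultured with fluconazole at 8 µg/mL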
[25] = fluconazole-exposed Candida albicans growth modulators – fluorescence, retest, confirmation (AID 2467); type: functional, cell-based
[26] = viability loss in HeLa cells – cytotoxicity control for MgcRacGAP inhibitor project, dose response (AID 624300); type: functional
cells [27] = details: A549
[28] = viability loss in HepG2 liver cells – cell-based, ATP luminescence, cherry-pick, set 6, cytotoxicity control, dose response (AID 1053125); type: functional
cells [29] = details: HEK293;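 also: cells exposed to compound for 48 hours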
[30] = Counterscreen for activators of the function of SWI/SNF related, matrix associated, actin dependent regulator of chromatin, subfamily a, member 2 (SMARCA2, BRM): Luminescence-based cell-based high throughput dose response assay to identify non-selective compounds using the VP16 reporter assay.; type: functional
[31] = target: SWI/SNF-related matrix-associated actin-dependent regulator of chromatin subfamily A member 2 (Homo sapiens, UniProt P51531); assay: Luminescence-based cell-based high throughput dose response assay to identify activators of the function of SWI/SNF related, matrix associated, actin dependent regulator of chromatin, subfamily a, member 2 (SMARCA2, BRM).; type: functional
Chain of SWI/SNF-related matrix-associated actin-dependent regulator of chromatin subfamily A member 2 (P51531 whole entry): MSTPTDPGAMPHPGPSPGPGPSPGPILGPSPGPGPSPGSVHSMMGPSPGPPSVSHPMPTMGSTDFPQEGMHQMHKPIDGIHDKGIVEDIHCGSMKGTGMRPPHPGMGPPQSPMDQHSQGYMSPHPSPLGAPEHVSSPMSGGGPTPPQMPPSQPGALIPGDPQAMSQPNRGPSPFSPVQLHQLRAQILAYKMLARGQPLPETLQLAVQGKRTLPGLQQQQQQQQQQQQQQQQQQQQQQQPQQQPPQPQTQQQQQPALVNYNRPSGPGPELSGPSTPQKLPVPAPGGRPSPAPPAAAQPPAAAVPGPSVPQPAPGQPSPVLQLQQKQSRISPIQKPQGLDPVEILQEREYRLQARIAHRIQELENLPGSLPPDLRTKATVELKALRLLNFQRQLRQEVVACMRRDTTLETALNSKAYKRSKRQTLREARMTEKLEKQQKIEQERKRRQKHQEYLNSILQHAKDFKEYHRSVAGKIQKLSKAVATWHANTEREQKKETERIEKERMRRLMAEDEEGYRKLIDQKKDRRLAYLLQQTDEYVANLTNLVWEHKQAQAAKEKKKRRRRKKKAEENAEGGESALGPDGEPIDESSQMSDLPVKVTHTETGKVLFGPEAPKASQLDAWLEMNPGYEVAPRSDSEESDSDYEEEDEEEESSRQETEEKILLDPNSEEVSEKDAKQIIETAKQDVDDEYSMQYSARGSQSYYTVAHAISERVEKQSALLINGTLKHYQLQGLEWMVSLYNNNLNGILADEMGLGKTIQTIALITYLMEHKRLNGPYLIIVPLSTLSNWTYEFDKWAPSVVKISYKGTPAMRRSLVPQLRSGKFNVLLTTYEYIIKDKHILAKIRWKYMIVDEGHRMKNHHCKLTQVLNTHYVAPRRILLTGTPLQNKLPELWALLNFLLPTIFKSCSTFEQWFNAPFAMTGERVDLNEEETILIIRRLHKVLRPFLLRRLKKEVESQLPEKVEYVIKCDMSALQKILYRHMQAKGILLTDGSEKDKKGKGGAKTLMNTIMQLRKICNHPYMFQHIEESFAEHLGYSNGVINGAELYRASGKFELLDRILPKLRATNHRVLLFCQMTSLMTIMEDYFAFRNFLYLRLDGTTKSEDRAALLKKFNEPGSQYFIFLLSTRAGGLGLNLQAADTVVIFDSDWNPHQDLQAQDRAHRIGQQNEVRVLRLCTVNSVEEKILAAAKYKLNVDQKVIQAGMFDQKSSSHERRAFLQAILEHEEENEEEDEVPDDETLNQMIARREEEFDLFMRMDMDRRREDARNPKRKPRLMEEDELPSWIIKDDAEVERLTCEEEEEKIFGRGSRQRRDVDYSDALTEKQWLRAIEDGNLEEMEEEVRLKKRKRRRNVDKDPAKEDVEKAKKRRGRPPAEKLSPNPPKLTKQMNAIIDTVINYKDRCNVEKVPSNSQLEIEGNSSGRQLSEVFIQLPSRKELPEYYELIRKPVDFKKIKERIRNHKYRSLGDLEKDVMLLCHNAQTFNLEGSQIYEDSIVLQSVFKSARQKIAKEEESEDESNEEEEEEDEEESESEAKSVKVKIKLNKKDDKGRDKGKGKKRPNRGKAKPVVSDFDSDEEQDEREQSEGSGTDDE

Chain of Fructose-bisphosphate aldolase (P9WQA3 whole entry, the tested form may be a part): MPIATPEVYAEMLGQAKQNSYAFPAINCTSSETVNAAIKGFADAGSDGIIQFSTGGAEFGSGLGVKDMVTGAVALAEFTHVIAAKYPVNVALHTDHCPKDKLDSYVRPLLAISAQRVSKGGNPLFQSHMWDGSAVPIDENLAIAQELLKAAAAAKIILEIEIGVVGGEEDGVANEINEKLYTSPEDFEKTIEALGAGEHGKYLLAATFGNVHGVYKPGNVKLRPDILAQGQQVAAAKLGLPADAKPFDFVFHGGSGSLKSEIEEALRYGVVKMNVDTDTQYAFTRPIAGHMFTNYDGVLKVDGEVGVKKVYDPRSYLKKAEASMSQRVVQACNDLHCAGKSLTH

For `O=C(CSc1nc2ccccc2o1)c1cc2ccccc2oc1=O`, the IC50 [1] was > 10 µM (inactive), the IC50 [2] was > 66 µM (inactive) and the EC50 [3] was > 50 µM (active). For the same molecule, the IC50 [4] was > 66 µM (inactive) and the IC50 (Prothrombin) was > 50 µM (inconclusive).

For `COC(=O)c1ccc(NCc2cc(O)ccc2O)cc1O`, the AC50 [5] was 26.3 µM (active).

In the case of `Cc1nc2sc(C(c3ccco3)N3CCN(C(c4ccccc4)c4ccccc4)CC3)c(O)n2n1` (stereo not drawn), the AC50 [6] is reported as 62.5 µM (active), the AC50 (Paired box protein Pax-8) is reported as 5.25 µM (active) and the AC50 [7] is reported as 69 µM (active). The AC50 [8] was 40.9 µM (active), the AC50 [9] was > 100 µM (inactive) and the AC50 [10] was 8.59 µM (active). The AC50 [11] was 45.6 µM (active), the AC50 [12] was 47 µM (active) and the AC50 [13] was 17 µM (active).

In the case of `CN1/C(=C\C=C2/SC(=S)NC2=O)C(C)(C)c2ccccc21`, the IC50 (Nonstructural protein 1) is reported as 38.8 µM (active), the AC50 (Protein S100-A4) is reported as 0.819 µM (active) and the EC50 [14] is reported as 7.49 µM (active). For the same molecule, the AC50 [15] was 2.6 µM (active), the AC50 [16] was 38.6 µM (active) and the AC50 [17] was 1.42 µM (active). For the same molecule, the AC50 (INS1) was 2.87 µM (active) and the EC50 [18] was 0.981 µM (active).

For `CCc1cccc2c(C(=O)CSc3nncn3-c3ccc(OC)cc3)c[nH]c12`, the AC50 [19] was > 100 µM (inactive).

With `Cc1cc(C)n(CCc2nc(-c3ccc(C(C)(C)C)cc3)cs2)n1` the IC50 [20] was > 69.5 µM (inactive) and the IC50 [21] was 36.5 µM (inactive).

In the case of `Cc1cccc(C)c1NC(=O)C1CCCN1C(=O)OC(C)(C)C` (stereo not drawn), the AC50 (HEK293) is reported as 50.8 µM (active) and the AC50 [22] is reported as 50.8 µM (active).

With `COc1cc(/C=C(\C#N)c2nc3ccccc3[nH]2)ccc1O` the IC50 [23] was 15.9 µM (active), the EC50 [24] was 49.9 µM (active) and the EC50 [25] was 1.41 µM (active). For the same molecule, the CC50 [26] was 99.9 µM (active).

With `O=C(NCc1cc(C(F)(F)F)ccc1Cl)c1cccc2c1C(=O)c1ccc(Cl)cc1S2(=O)=O` the AC50 (cells [27]) was 37.6 µM (active), the AC50 [28] was > 52 µM (inactive) and the AC50 (cells [29]) was > 52 µM (inactive).

With `Nc1ccc2c(c1)C(=O)c1cc(N)c(Cl)cc1-2` the EC50 [30] was > 91.2 µM (inactive), the IC50 [23] was 22.1 µM (active) and the EC50 [31] was > 91.2 µM (inactive).
